In ChEMBL document CHEMBL5674884, “Ezh2 inhibition in Kras-driven lung cancer amplifies inflammation and associated vulnerabilities” (J Exp Med, 2018):
The source made the active and inactive calls. The rule behind the calls is not given here.

What was measured:
NSCLC = assay: Antitumor activity in KrasG12D/+ harbouring mouse NSCLC cells xenografted in BALB/c nude mouse assessed as reduced tumor progression; type: functional; settings: dose 50.0 mg/kg, route iv
A549 [1] = assay: Reversal of GSK126 dependent antiinflammatory activity in human A549 cells assessed as decrease in Il1ra level by qRT-PCR analysis; type: functional, cell-based
A549 [2] = assay: Reversal of GSK126 dependent antiinflammatory activity in human A549 cells assessed as decrease in Ccl2 level by qRT-PCR analysis; type: functional, cell-based
A549 [3] = assay: Reversal of GSK126 dependent antiinflammatory activity in human A549 cells assessed as decrease in Irak1 level by qRT-PCR analysis; type: functional, cell-based
A549 [4] = assay: Reversal of GSK126 dependent antiinflammatory activity in human A549 cells assessed as decrease in IL-6 level by qRT-PCR analysis; type: functional, cell-based

Compound	Activity (NSCLC)	Activity (A549 [1])	Activity (A549 [2])	Activity (A549 [3])	Activity (A549 [4])
CC(C)C[C@H](NC(=O)[C@H](Cc1ccccc1)NC(=O)c1cnccn1)B(O)O	inactive				
CN1CC[C@H](c2c(O)cc(O)c3c(=O)cc(-c4ccccc4Cl)oc23)[C@H](O)C1		Active	Active	Active	Active
